Earlier results as cited in patent US4788322A, “Process for preparing ACHPA” (Merck & Co., Inc., priority 1987, dated 1988).
Square brackets hold non-standard residues; d marks the D form. Peptide text beside a SMILES is read from it. * marks the point of attachment. Sta = CC(C)C[C@H](N)[C@@H](O)CC(=O)O; Isovaleryl = CC(C)CC(=O)*

Tested on: hog renin
Conditions: after injection of hog renin into nephrectomized rats; Gross et al., Science 1972

CC(C)CC(=O)N[C@H](C(=O)N[C@H](C(=O)N[C@@H](CC(C)C)[C@@H](O)CC(=O)N[C@@H](C)C(=O)N[C@@H](CC(C)C)[C@@H](O)CC(=O)O)C(C)C)C(C)C [pepstatin] (Isovaleryl-VV[Sta]A[Sta]-OH)
blood pressure in vivo: reduces blood pressure
